{"source": "patent US11071727B2", "about": "“Therapeutic targeting of proteolytic cleavage of the mixed lineage leukemia gene product (MLL1) by taspase1 using kinase inhibitors” (Northwestern University, priority 2018, dated 2021)", "key": {"[1]": {"test_system": "MLL leukemia and non-MLL leukemia cells", "assay": "Leukemia cell proliferation by cell counting", "format": "cell-based, human", "conditions": "panel of MLL and non-MLL leukemia cell lines, increasing concentrations, 3 days", "description": "FIG. 6. CKII inhibition increases genome-wide MLL occupancy and excludes SEC recruitment in MLL leukemia cells. (A) and (B) MLL1C occupancy in CX-4945 or TTP22 treated cells were shown relative to DMSO control. […] (C) Track examples of the MLL1 occupancy at the promoter regions of ELF2 and C6orf211. (D) CX-4945 inhibition of leukemia cell proliferation. Multiple MLL leukemia (orange lines) and non-MLL leukemia (blue lines) were cultured with different doses of CX-4945 for 3 days. Cell number was determined by cell counter and normalized to DMSO control. (E) SEM cells were treated with 0, 5 or 10 μM of CX-4945 for 30 hours and western blot was performed to determine the MLL1 full-length protein levels and MLL-AF4 fusion protein levels. (F) MLL-AFF1, AFF4 and ELL2 occupancies were decreased by CX-4945 treatment in SEM cells.\nCell culture. All of the cell lines were purchased from the American Type Culture Collection (Rockville, Md.). 293T, MCF7 and HCT116 cell lines were maintained in Dulbecco's modified Eagle's medium (DMEM) (Gibco, Gaithersburg, Md.) supplemented with 10% fetal bovine serum (FBS) (Gibco) at 37° with 5% CO2. SEM was maintained in IMDM with 10% FBS. […]\nCell Proliferation Assay. Cell proliferation was measured by cell counting using the Vi-CELL™ Cell Counter (Beckman Coulter Life Sciences, Indianapolis, Ind.). […]"}, "MOLM13 cells": {"test_system": "MOLM13 cells", "assay": "MOLM13 human leukemia xenograft mouse model", "format": "in vivo", "description": "FIG. 7. CKII inhibition delays the leukemia progression and improves survival of MLL-AF9 mice and MOLM13 human leukemia mice. (A) Timeline of the MLL-AF9 leukemia mouse model and CKII inhibitor treatment. Drug treatments were started at day 10 after transplantation. (B) Kaplan-Meier survival curves of secondary transplanted C57BL/6 mice after vehicle and CX-4945 treatment at day 10. Vehicle or CX-4945 (50 mg/kg or 75 mg/kg) were administered twice daily by oral gavage for a total of twenty treatments. Leukemia was confirmed at the endpoint for each transplant mouse. The number (n) indicates the number of mice in each group. The p values were calculated using the log rank test. (C) Timeline of the MOLM13 human leukemia xenograft mice. Drug treatments were started at day 5 after transplantation. (D) Kaplan-Meier survival curves of NSGS mice after vehicle and CX-4945 treatment. Vehicle or CX-4945 (50 mg/kg) were administered twice daily by oral gavage for a total of twenty treatments. Leukemia was confirmed at the endpoint for each transplant mouse by flow cytometry, H&E staining and histology analysis. […] The p value was calculated using the log rank test. […]\nMLL Murine Xenograft Transplantation and Treatment. […] Mice were monitored for illness including signs of lethargy, ruffled coat, and/or hind limb paralysis at which time mice were sacrificed for analysis. […]"}}, "data": [{"compound": "O=C(O)c1ccc2c(c1)nc(Nc1cccc(Cl)c1)c1ccncc12", "note": "[CX-4945, 5-(3-chlorophenylamino)benzo[c][2,6]naphthyridine-8-carboxylic acid]", "values": [{"measurement": "sensitivity of leukemic cell lines (cell number normalized to DMSO)", "setting": "[1]", "result": "MLL leukemia cells were generally more sensitive than non-MLL leukemic cells"}, {"measurement": "weight of the mice", "setting": "MOLM13 cells; MOLM13 human leukemia xenograft mouse model, compared with vehicle control group", "result": "did not affect the weight of the mice"}, {"measurement": "leukemia free survival", "setting": "MOLM13 cells; NSGS mice, 50 mg/kg twice daily by oral gavage for ten days, from day 5", "result": "significantly lengthened"}]}]}
